According to patent US20160213657A1, “PHARMACEUTICAL COMPOSITION FOR TREATMENT AND/OR PREVENTION OF PULMONARY DISEASE” (UBE INDUSTRIES, LTD., priority 2013, published 2016):
Where two headings read alike, the source gives them in different places.

What was measured:
human EP2 receptor = human EP2 receptor (Homo sapiens, UniProt P43116); experiment: Measurement of EP2 receptor binding action ([3H]prostaglandin E2 displacement)
Experimental: Measurement of EP2 Receptor Binding Action
The membrane fraction was collected on glass fiber filter paper (GF/B, manufactured by Whatman) using a cell harvester (M30R, manufactured by Brandel), and after washing with a buffer solution (10 mM MES-KOH (pH 6.0), 10 mM MgCl2), radioactivity was measured with a liquid scintillation analyzer (2000CA, manufactured by Packard).
Ki=IC50/(1+([^3H]prostaglandin E2 concentration/Kd))
Furthermore, the dissociation constant (Kd value) was calculated by Scatchard analysis.

[1] = tested on: LPS-induced TNFα production of human peripheral blood mononuclear cells; experiment: Test of inhibition of LPS-induced TNFα production using human peripheral blood mononuclear cells; assay type: cell-based; details: read-out: IC50 value (nM) of TNFα production inhibitory action of human PBMC
Experimental: Test of Inhibition of LPS-Induced TNFα Production Using Human Peripheral Blood Mononuclear Cells
Peripheral blood collected in the presence of heparin from healthy subjects was diluted two-fold with PBS containing 2 (V/V) % FBS. Hemocyte separation solution (Ficoll Paque™, manufactured by GE Healthcare Science) was added to SepMate™-50 (manufactured by […] Technologies Inc.) followed by layering the diluted blood thereon. A peripheral blood mononuclear cell (hereinafter abbreviated as PBMC) layer was recovered by centrifuging for 10 minutes under conditions of 20° C. and 1200×g. The resulting PBMCs were further centrifuged and washed twice followed by suspending in RPMI1640 medium containing 1 (V/V) % FBS for use in the following test.
A test of inhibition of LPS-induced TNFα production was performed by partially modifying the method of Mary et al. (Journal of Pharmacology and Experimental Therapeutics, 284, 420 (1998)). 185 μL of PBMC suspension prepared to a final concentration of 5×10^5 cells/mL was added to a 96-well plate, subsequently 10 μL of RPMI1640 medium, containing 1 (V/V) % DMSO in which a test compound was dissolved, was added to each well (DMSO final concentration: 0.05 (V/V) %). RPMI1640 medium containing 1 (V/V) % DMSO was similarly added to a well to which test compounds had not been added. After incubating for 1 hour in a carbon dioxide gas incubator, 5 μL of RPMI1640 medium containing LPS (L2880-500MG, manufactured by Sigma) was added to each well (LPS final concentration: 100 ng/mL). 5 μL of RPMI1640 medium was added to a non-LPS stimulation well. After culturing for about 18 hours in a carbon dioxide gas incubator, the culture supernatant was recovered. The recovered culture supernatant was stored at −20° C. until measurement of TNFα content.
A sandwich ELISA kit (Quantikine DTA00c, manufactured by R&D Systems) was used to measure TNFα content. The TNFα content of each sample was calculated from a standard curve of E. coli-derived human recombinant TNF provided with the kit. TNFα production inhibition rate at each test compound concentration was calculated based on a value of 100% for the amount of TNFα produced by LPS in the case of only adding DMSO. The concentration of test compound that inhibited TNFα production by 50% was calculated as the IC50 value (nM) from the relationship between concentration of the added test compound and TNFα production inhibition rate of the test compound.

[2] = tested on: neutrophil infiltration of the rat lung; experiment: Inhibitory effect on neutrophil infiltration of rat lung (LPS intratracheal, BALF); assay type: in vivo; details: SD rats; approx. 0.1 mg/Kg intratracheally 1 hour prior to LPS; BALF 4 hours after LPS
Experimental: Inhibitory Effect on Neutrophil Infiltration of Rat Lung
A test of inhibition of neutrophil infiltration of the rat lung was performed by partially modifying the method of Spond et al. (Pulmonary Pharmacology and Therapeutics, 14, 157 (2001)). 25 μL (approx. 4 μg/Kg) of physiological saline solution containing LPS (L2880-500MG, manufactured by Sigma) (concentration: 0.04 mg/mL) was administered intratracheally under isoflurane inhalation anesthesia into SD rats fasted for about 16 hours (males, 7-8 weeks old, body weights: 240 g to 270 g (average: approx. 250 g), supplied by Charles River Laboratories, Japan). A Microsprayer™ (IA-1C-M, manufactured by PennCentury) was used for intratracheal administration.
Dosing solutions of the test compounds were prepared by dissolving the test compounds in a 0.1 mol/L or 1 mol/L aqueous sodium hydroxide solution followed by adding medium and neutralizing (final test compound concentration: 1 mg/mL). PBS or phosphate buffer solution (20 mM, pH=7.4) was used for the medium. 25 μL (approx. 0.1 mg/Kg) of the test compound solution prepared in this manner was administered intratracheally in the same manner as LPS administration 1 hour prior to administration of LPS. Medium was administered to a control group. Furthermore, 6 animals were used in the test compound dosing groups and control group, respectively. […]
The number of white blood cells present in the BALF suspension was measured using a multiparameter automated hematology analyzer (KX-21, manufactured by Sysmex). […] Next, after staining the cells using the Diff-Quik staining kit (Cat. No. 16920, manufactured by Sysmex), the number of neutrophils present among 300 white blood cells was measured under a light microscope (BH-2, manufactured by Olympus) followed by calculating the ratio of neutrophils to white blood cells (NR=the number of neutrophils among 300 white blood cells/300). […]
The number of neutrophils present in the BALF cell suspension was measured using a multiparameter automated hematology analyzer (XT-2000iV, manufactured by Sysmex). […]

[3] = membrane fraction of HEK293 cells expressing human EP2 receptor, [3H]prostaglandin E2 10 nM, 30° C., 60 minutes, read-out: Ki value (nM) of EP2 receptor binding action

Sequence of human EP2 receptor (P43116 whole entry): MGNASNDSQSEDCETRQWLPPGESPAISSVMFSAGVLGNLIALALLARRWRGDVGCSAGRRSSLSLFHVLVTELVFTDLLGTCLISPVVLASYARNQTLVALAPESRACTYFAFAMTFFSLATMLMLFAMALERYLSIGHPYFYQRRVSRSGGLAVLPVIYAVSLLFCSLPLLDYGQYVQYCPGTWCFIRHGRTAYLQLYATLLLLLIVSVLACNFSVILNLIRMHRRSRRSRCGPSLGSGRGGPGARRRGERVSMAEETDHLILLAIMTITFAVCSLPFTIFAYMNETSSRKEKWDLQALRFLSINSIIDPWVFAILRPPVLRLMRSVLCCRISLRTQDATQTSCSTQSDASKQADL

Row | Structure (SMILES) | Ki (human EP2 receptor; [3]) [nM] | IC50 ([1]; LPS 100 ng/mL, culture about 18 hours, TNFα by ELISA) [nM] | IC50 ([1]; Homo sapiens, PBMC, 18 h) [nM] | Inhibition rate of pulmonary neutrophil infiltration [2] [%] | Ki (human EP2 receptor) [nM]
1 | CCCc1cccc(-c2ccc(CN(Cc3cccc(NCC(=O)O)n3)S(=O)(=O)c3ccccn3)cc2)c1 [Comparative Example 1, {6-[(3′-Propylbiphenyl-4-ylmethyl)(pyridin-2-ylsulfonyl)aminomethyl]pyridin-2-ylamino}acetate, reference compound] | 1.1 | > 300 |  |  | 
2 | CC=Cc1cccc(-c2ccc(CN(Cc3cccc(NCC(=O)O)n3)S(=O)(=O)c3ccccn3)cc2)c1 [Example 2] | 0.53 |  |  |  | 
3 | CC#Cc1cccc(-c2ccc(CN(Cc3cccc(NCC(=O)O)n3)S(=O)(=O)c3ccccn3)cc2)c1 [Example 4, (6-{[3′-(1-Propynyl)biphenyl-4-ylmethyl](pyridin-2-ylsulfonyl)aminomethyl}-pyridin-2-ylamino)acetic acid] | 0.8 |  | 3.3 | 71 | 
4 | CC#Cc1cccc(-c2ccc(CN(Cc3cccc(NCC(=O)O)n3)S(=O)(=O)c3cccnc3)cc2)c1 [Example 6, (6-{[3′-(1-Propynyl)biphenyl-4-ylmethyl](pyridin-3-ylsulfonyl)aminomethyl}-pyridin-2-ylamino)acetic acid] |  |  | 9.4 |  | 0.75
5 | CCOc1cccc(-c2ccc(CN(Cc3cccc(NCC(=O)O)n3)S(=O)(=O)c3ccccn3)cc2)c1 [Example 7, {6-[(3′-Ethoxybiphenyl-4-ylmethyl)(pyridin-2-ylsulfonyl)aminomethyl]-pyridin-2-ylamino}acetic acid] |  |  | 20 |  | 0.61
6 | CCOc1cccc(-c2ccc(CN(Cc3cccc(NCC(=O)O)n3)S(=O)(=O)c3cccnc3)cc2)c1 [Example 9, {6-[(3′-Ethoxybiphenyl-4-ylmethyl)(pyridin-3-ylsulfonyl)aminomethyl]-pyridin-2-ylamino}acetic acid] |  |  |  |  | 0.8
7 | CCOc1cccc(-c2ccc(CN(Cc3cccc(NCC(=O)O)n3)S(=O)(=O)c3ccccc3)cc2)c1 [Example 10, {6-[(Benzenesulfonyl)(3′-ethoxybiphenyl-4-ylmethyl)aminomethyl]pyridin-2-ylamino}acetic acid] |  |  | 18 |  | 0.97
8 | CCOc1cccc(-c2ccc(CN(Cc3cccc(NCC(=O)O)n3)S(=O)(=O)c3cccs3)cc2)c1 [Example 11, {6-[(3′-Ethoxybiphenyl-4-ylmethyl)(thiophen-2-ylsulfonyl)aminomethyl]-pyridin-2-ylamino}acetic acid] |  |  | 23 |  | 
9 | CCOc1cccc(-c2ccc(CN(Cc3cccc(NCC(=O)O)n3)S(=O)(=O)c3ccccn3)cc2)n1 [Example 12, (6-{[4-(6-Ethoxypyridin-2-yl)benzyl](pyridin-2-ylsulfonyl)aminomethyl}-pyridin-2-ylamino)acetic acid] |  |  | 16 |  | 
10 | CC#Cc1cccc(-c2ccc(CN(Cc3cccc(NCC(=O)O)n3)S(=O)(=O)c3cccs3)cc2)c1 [Example 14, (6-{[3′-(1-Propynyl)biphenyl-4-ylmethyl](thiophen-2-ylsulfonyl)-aminomethyl}pyridin-2-ylamino)acetic acid] | 0.9 |  | 13 | 65 | 
11 | CC#Cc1cccc(-c2ccc(CN(Cc3cccc(NCC(=O)O)n3)S(=O)(=O)c3ccccc3)cc2)c1 [Example 16, (6-{(Benzenesulfonyl)[3′-(1-propynyl)biphenyl-4-ylmethyl]aminomethyl}-pyridin-2-ylamino)acetic acid] |  |  | 15 | 66 | 0.95
12 | CC#Cc1cccc(-c2ccc(CN(Cc3cccc(NCC(=O)O)n3)S(=O)(=O)c3ccsc3)cc2)c1 [Example 18, (6-{[3′-(1-Propynyl)biphenyl-4-ylmethyl](thiophen-3-ylsulfonyl)-aminomethyl}pyridin-2-ylamino)acetic acid] | 0.99 |  | 3.2 |  | 
